{"source": "patent US20110160206A1", "about": "“TRI-SUBSTITUTED PYRIMIDINE COMPOUNDS AND THEIR USE AS PDE10 INHIBITORS” (priority 2009, published 2011)", "note": "Structures can show the parent of a compound that is named as a salt."}
{"target": "T1, PDE10 (PDE10A) (Bos taurus, UniProt A0A3Q1MHJ4)", "T1 construct": "isolated and prepared from bovine corpus striatum; from tissue; host or cells: bovine corpus striatum", "T1 sequence (A0A3Q1MHJ4 1-1068)": "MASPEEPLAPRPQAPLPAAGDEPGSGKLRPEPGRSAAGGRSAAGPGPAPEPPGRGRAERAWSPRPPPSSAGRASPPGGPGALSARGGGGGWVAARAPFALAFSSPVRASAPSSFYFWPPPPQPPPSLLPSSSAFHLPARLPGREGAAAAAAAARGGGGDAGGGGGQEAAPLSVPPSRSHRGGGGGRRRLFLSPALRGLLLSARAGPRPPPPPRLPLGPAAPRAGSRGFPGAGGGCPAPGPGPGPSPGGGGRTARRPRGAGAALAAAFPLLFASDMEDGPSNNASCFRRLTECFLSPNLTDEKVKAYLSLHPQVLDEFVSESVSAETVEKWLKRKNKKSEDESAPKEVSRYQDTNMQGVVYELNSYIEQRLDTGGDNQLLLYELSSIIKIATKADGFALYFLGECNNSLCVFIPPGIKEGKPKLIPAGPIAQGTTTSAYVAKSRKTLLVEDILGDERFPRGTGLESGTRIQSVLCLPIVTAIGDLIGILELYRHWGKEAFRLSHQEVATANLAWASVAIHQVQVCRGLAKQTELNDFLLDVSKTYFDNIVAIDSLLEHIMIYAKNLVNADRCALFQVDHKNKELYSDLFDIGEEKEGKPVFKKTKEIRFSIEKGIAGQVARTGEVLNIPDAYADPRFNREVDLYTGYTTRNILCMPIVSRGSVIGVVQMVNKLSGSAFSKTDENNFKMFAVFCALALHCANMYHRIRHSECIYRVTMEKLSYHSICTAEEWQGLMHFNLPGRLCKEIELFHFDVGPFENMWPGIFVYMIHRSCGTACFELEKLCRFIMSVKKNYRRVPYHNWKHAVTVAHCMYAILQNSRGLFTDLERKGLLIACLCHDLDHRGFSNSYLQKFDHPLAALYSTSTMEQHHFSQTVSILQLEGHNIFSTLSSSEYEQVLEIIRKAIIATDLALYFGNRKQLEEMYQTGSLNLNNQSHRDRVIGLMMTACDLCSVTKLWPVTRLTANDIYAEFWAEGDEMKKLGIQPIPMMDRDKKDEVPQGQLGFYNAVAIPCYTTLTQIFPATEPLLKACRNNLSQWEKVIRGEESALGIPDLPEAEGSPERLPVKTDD", "assay": "Measurement of PDE10 inhibitory activity (radiolabeled nucleotide PDE assay)", "assay_type": "biochemical", "conditions": "PDE10A from bovine corpus striatum; [3H]cAMP 7 nM final; room temperature 90 min", "description": "(1) The enzyme PDE10 (PDE10A) was isolated and prepared from bovine corpus striatum, according to the methods described in references Fujishige et al., Eur. J. Biochem., vol. […] The enzyme solution obtained was used for a PDE assay.\nSpecifically, the measurements of the inhibitory activities were carried out in the following method.\n(Method) The test compounds were dissolved in dimethyl sulfoxide (DMSO). […] The final concentration of cAMP in the reaction mixtures was 7 nM. The reaction mixtures were incubated at room temperature for 90 min under dark conditions. After incubation, the reaction was stopped by adding 100 μL of methanol and resultant solutions were applied to filter plate containing Dowex (1×8 200-400) and centrifuged. 50 μL of the eluate together with wash eluate with additional 100 μL methanol was collected in another plate and the radioactivity was measured with 250 μL of scintillant.\n(2) The compounds in the Examples below were tested for PDE inhibition using the Method described above.", "units": {"IC50": "nM"}}
{"smiles": "CN(C)c1nc2ccccc2nc1/C=C/c1nc(NC2CCOCC2)cc(N2CCCC2)n1", "note": "[Example 1.001, N,N-dimethyl-3-{(E)-2-[4-pyrrolidin-1-yl-6-(tetrahydro-2H-pyran-4-ylamino)pyrimidin-2-yl]vinyl}quinoxalin-2-amine dihydrochloride]", "IC50": 0.1}
{"smiles": "COCCNc1cc(N2CCCC2)nc(/C=C/c2nc3ccccc3nc2N(C)C)n1", "note": "[Example 1.003, 3-((E)-2-{4-[(2-methoxyethyl)amino]-6-pyrrolidin-1-ylpyrimidin-2-yl}vinyl)-N,N-dimethylquinoxalin-2-amine]", "IC50": 0.6}
{"smiles": "CN(C)c1nc2ccccc2nc1/C=C/c1nc(N[C@@H]2CCS(=O)(=O)C2)cc(N2CCCC2)n1", "note": "[Example 1.007, 3-[(E)-2-(4-{[(3R)-1,1-dioxidotetrahydro-3-thienyl]amino}-6-pyrrolidin-1-ylpyrimidin-2-yl)vinyl]-N,N-dimethylquinoxalin-2-amine]", "IC50": 0.09}
{"smiles": "CN(c1nc2ccccc2nc1/C=C/c1nc(NC2CCOCC2)cc(N2CCCC2)n1)C1CC1", "note": "[Example 1.010, N-cyclopropyl-N-methyl-3-{(E)-2-[4-pyrrolidin-1-yl-6-(tetrahydro-2H-pyran-4-ylamino)pyrimidin-2-yl]vinyl}quinoxalin-2-amine]", "IC50": 0.48}
{"smiles": "Cc1nc2ccccc2nc1/C=C/c1nc(N[C@H]2CC[C@](C)(O)CC2)cc(N2CCCC2)n1", "note": "[Example 1.020, trans-1-methyl-4-({2-[(E)-2-(3-methylquinoxalin-2-yl)vinyl]-6-pyrrolidin-1-ylpyrimidin-4-yl}amino)cyclohexanol]", "IC50": 0.073}
{"smiles": "Cc1nc2ccccc2nc1/C=C/c1nc(N[C@H]2CC[C@H](CO)CC2)cc(N2CCCC2)n1", "note": "[Example 1.024, [trans-4-({2-[(E)-2-(3-methylquinoxalin-2-yl)vinyl]-6-pyrrolidin-1-ylpyrimidin-4-yl}amino)cyclohexyl]methanol]", "IC50": 0.039}
{"smiles": "Cc1cc2nc(C)c(/C=C/c3nc(N[C@@H]4CCOC4)cc(N4CCCC4)n3)nc2cc1C", "note": "[Example 1.041, 6-pyrrolidin-1-yl-N-[(3R)-tetrahydrofuran-3-yl]-2-[(E)-2-(3,6,7-trimethylquinoxalin-2-yl)vinyl]pyrimidin-4-amine]", "IC50": 0.66}
{"smiles": "CO[C@H]1CC[C@H](Nc2cc(N3CCCC3)nc(/C=C/c3nc4ccc(F)cc4nc3C)n2)CC1", "note": "[Example 1.048, 2-[(E)-2-(6-fluoro-3-methylquinoxalin-2-yl)vinyl]-N-(trans-4-methoxycyclohexyl)-6-pyrrolidin-1-ylpyrimidin-4-amine dihydrochloride]", "IC50": 0.04}
{"smiles": "Cc1nc2ccc(F)cc2nc1/C=C/c1nc(NC2CCOCC2)cc(N2CCCC2)n1", "note": "[Example 1.050, 2-[(E)-2-(7-fluoro-3-methylquinoxalin-2-yl)vinyl]-6-pyrrolidin-1-yl-N-(tetrahydro-2H-pyran-4-yl)pyrimidin-4-amine hydrochloride]", "IC50": 0.14}
{"smiles": "Cc1ccc2nc(C)c(/C=C/c3nc(N[C@H]4CC[C@](C)(O)CC4)cc(N4CCCC4)n3)nc2c1", "note": "[Example 1.064, trans-4-({2-[(E)-2-(3,7-dimethylquinoxalin-2-yl)vinyl]-6-pyrrolidin-1-ylpyrimidin-4-yl}amino)-1-methylcyclohexanol]", "IC50": 0.048}
{"smiles": "Cc1nc2ccc(C(F)(F)F)cc2nc1/C=C/c1nc(N[C@@H]2CCS(=O)(=O)C2)cc(N2CCCC2)n1", "note": "[Example 1.074, N-[(3R)-1,1-dioxidotetrahydro-3-thienyl]-2-{(E)-2-[3-methyl-7-(trifluoromethyl)quinoxalin-2-yl]vinyl}-6-pyrrolidin-1-ylpyrimidin-4-amine]", "IC50": 0.0033}
{"smiles": "COc1ccc2nc(C)c(/C=C/c3nc(NC4CCOCC4)cc(N4CCCC4)n3)nc2c1", "note": "[Example 1.078, 2[(E)-2-(7-methoxy-3-methylquinoxalin-2-yl)vinyl]-6-pyrrolidin-1-yl-N-(tetrahydro-2H-pyran-4-yl)pyrimidin-4-amine dihydrochloride]", "IC50": 0.047}
{"smiles": "Cc1nc2ccc(OC(F)(F)F)cc2nc1/C=C/c1nc(N[C@H]2CC[C@H](O)CC2)cc(N2CCCC2)n1", "note": "[Example 1.084, trans-4-[(2-{(E)-2-[3-methyl-7-(trifluoromethoxy)quinoxalin-2-yl]vinyl}-6-pyrrolidin-1-ylpyrimidin-4-yl)amino]cyclohexanol]", "IC50": 0.011}
{"smiles": "Cc1cc2ccccc2nc1/C=C/c1nc(NC2CCOCC2)cc(N2CCCC2)n1", "note": "[Example 1.090, 2-[(E)-2-(3-methylquinolin-2-yl)vinyl]-6-pyrrolidin-1-yl-N-(tetrahydro-2H-pyran-4-yl)pyrimidin-4-amine]", "IC50": 0.36}
{"smiles": "Cc1cc2ccccc2nc1/C=C/c1nc(N[C@@H]2CCS(=O)(=O)C2)cc(N2CCCC2)n1", "note": "[Example 1.093, N-[(3R)-1,1-dioxidotetrahydro-3-thienyl]-2-[(E)-2-(3-methylquinolin-2-yl)vinyl]-6-pyrrolidin-1-ylpyrimidin-4-amine]", "IC50": 0.3}
{"smiles": "Oc1nc2ccccc2nc1/C=C/c1nc(NC2CCOCC2)cc(N2CCCC2)n1", "note": "[Example 1.094, 3-{(E)-2-[4-pyrrolidin-1-yl-6-(tetrahydro-2H-pyran-4-ylamino)pyrimidin-2-yl]vinyl}quinoxalin-2-ol hydrochloride]", "IC50": 0.17}
{"smiles": "CN(C)c1nc2ccccc2nc1/C=C/c1nc(N2CCCC2)cc(N2CCOCC2)n1", "note": "[Example 1.095, N,N-dimethyl-3-[(E)-2-(4-morpholin-4-yl-6-pyrrolidin-1-ylpyrimidin-2-yl)vinyl]quinoxalin-2-amine]", "IC50": 0.79}
{"smiles": "CN(C)c1nc2ccccc2nc1/C=C/c1nc(N2CCCC2)cc(N(C2CCOCC2)C2CC2)n1", "note": "[Example 1.099, 3-((E)-2-{4-[cyclopropyl(tetrahydro-2H-pyran-4-yl)amino]-6-pyrrolidin-1-ylpyrimidin-2-yl}vinyl)-N,N-dimethylquinoxalin-2-amine]", "IC50": 0.1}
{"smiles": "CN(c1cc(N2CCCC2)nc(/C=C/c2nc3ccccc3nc2N(C)C2CC2)n1)C1CCOCC1", "note": "[Example 1.101, N-cyclopropyl-N-methyl-3-((E)-2-{4-[methyl(tetrahydro-2H-pyran-4-yl)amino]-6-pyrrolidin-1-ylpyrimidin-2-yl}vinyl)quinoxalin-2-amine]", "IC50": 0.46}
{"smiles": "CO[C@H]1CC[C@H](Nc2cc(N3CCCC3)nc(CCc3nc4cc(C(F)(F)F)ccc4nc3C)n2)CC1", "note": "[Example 4.003, N-(trans-4-methoxycyclohexyl)-2-{2-[3-methyl-7-(trifluoromethyl)quinoxalin-2-yl]ethyl}-6-pyrrolidin-1-ylpyrimidin-4-amine]", "IC50": 0.031}
{"smiles": "Cc1nc2ccccc2nc1OCc1nc(N2CCCC2)cc(N(C)C2CCOCC2)n1", "note": "[Example 5.002, N-methyl-2-{[(3-methylquinoxalin-2-yl)oxy]methyl}-6-pyrrolidin-1-yl-N-(tetrahydro-2H-pyran-4-yl)pyrimidin-4-amine hydrochloride]", "IC50": 0.61}
{"smiles": "Cc1nc2ccccc2nc1OCc1cc(NC2CCOCC2)nc(N2CCCC2)n1", "note": "[Example 6.001, 6-[(3-methylquinoxalin-2-yl)oxy]methyl-2-pyrrolidin-1-yl-N-(tetrahydro-2H-pyran-4-yl)pyrimidin-4-amine hydrochloride]", "IC50": 0.22}
